Several values for one entry are separate records, joined by “and”; a condition that tells them apart may be missing. Equal entries are not always repeated. Where two headings read alike, the source gives them in different places.
Tests used:
[1] = target: T1, human dopamine D2L receptor (hD2LR) (Homo sapiens, UniProt P14416); test: cell-based functional GPCR assay, Ca2+ mobilization, CHO-D2LR; details: for inhibition at 100 µM / % Stimulation of control agonist response: D2L (h), 100 µM test compound; for inhibition at 100 µM: control 700 nM DA, read-out: % Inhibition of control agonist response (converted); for % Stimulation of control agonist response: control 10 μM DA; for inhibition at 25 µM: D2LR, 25 µM test compound, read-out: % inhibition of DA response
T1 construct: host or cells: CHO (CHO-D2LR)

[2] = target: human dopamine D1 receptor (hD1R) (Homo sapiens, UniProt P21728); test: cell-based functional GPCR assay, cAMP modulation, CHO-D1R; details: for % Stimulation of control agonist response: D1 (h), 100 µM test compound, control 10 μM DA; for inhibition at 100 µM: read-out: % Inhibition of control agonist response; for inhibition at 25 µM: read-out: % inhibition of DA response
[3] = target: human dopamine D3 receptor (hD3R) (Homo sapiens, UniProt P35462); test: cell-based functional GPCR assay, cAMP modulation, CHO-D3R; details: for % Stimulation of control agonist response: D3 (h), 100 µM test compound, control 300 nM DA; for agonist response (%): D3R, 25 µM test compound; for inhibition at 100 µM: read-out: % Inhibition of control agonist response
[4] = target: T2, Human Monoamine Oxidase A (hMAO-A) (Homo sapiens, UniProt P21397); test: hMAO-A inhibition, MAO-Glo chemiluminescent assay and enzyme kinetics; format: biochemical; details: for Inhibition Type: Lineweaver–Burk and Dixon plots
T2 construct: purchased Sigma-Aldrich
T2 sequence (P21397 1-527): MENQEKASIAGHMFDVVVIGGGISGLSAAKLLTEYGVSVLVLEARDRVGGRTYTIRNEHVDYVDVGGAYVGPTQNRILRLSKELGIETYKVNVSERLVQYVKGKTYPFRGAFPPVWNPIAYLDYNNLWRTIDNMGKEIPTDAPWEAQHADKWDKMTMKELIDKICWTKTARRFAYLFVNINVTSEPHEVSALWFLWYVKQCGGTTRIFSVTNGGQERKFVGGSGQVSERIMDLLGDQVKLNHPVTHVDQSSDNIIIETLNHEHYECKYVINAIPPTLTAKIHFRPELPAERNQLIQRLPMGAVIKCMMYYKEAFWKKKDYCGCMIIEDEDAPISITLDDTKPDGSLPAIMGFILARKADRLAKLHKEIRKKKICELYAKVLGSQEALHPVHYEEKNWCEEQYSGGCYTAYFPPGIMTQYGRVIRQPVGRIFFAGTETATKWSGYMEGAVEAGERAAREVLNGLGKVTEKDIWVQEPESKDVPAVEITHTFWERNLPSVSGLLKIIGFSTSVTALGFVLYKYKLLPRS

hMAO = test: initial hMAO activity screen at 100 µg/mL (MAO-Glo); format: biochemical, human; details: isozyme not stated
[5] = target: T3, Human Monoamine Oxidase B (hMAO-B) (Homo sapiens, UniProt P27338); test: hMAO-B inhibition, MAO-Glo chemiluminescent assay and enzyme kinetics; format: biochemical; details: for Inhibition Type: Lineweaver–Burk and Dixon plots; for IC50: log dose-inhibition curve, triplicate, read-out: IC50 (μM, Mean ± SD)
T3 construct: purchased Sigma-Aldrich
T3 sequence (P27338 1-520): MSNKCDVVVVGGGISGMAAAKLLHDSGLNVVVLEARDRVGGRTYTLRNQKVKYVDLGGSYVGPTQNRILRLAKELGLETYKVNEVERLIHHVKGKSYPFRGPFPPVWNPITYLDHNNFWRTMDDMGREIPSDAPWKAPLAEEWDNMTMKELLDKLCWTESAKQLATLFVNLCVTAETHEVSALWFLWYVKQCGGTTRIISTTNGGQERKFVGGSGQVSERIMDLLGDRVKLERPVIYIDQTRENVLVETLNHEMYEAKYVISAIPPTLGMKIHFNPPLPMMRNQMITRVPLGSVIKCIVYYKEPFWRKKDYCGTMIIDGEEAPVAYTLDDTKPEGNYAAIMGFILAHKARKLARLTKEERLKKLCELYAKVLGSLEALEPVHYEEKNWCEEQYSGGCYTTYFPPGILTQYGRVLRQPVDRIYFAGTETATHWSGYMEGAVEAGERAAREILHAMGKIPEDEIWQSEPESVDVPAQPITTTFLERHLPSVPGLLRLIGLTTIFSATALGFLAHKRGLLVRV

[6] = target: T4, human dopamine D4 receptor (hD4R) (Homo sapiens, UniProt P21917); test: cell-based functional GPCR assay, cAMP modulation, CHO-D4R; details: for % Stimulation of control agonist response: D4 (h), 100 µM test compound, control 300 nM DA; for agonist response (%): D4R, 25 µM test compound; for inhibition at 100 µM: read-out: % Inhibition of control agonist response
T4 sequence (P21917 1-419): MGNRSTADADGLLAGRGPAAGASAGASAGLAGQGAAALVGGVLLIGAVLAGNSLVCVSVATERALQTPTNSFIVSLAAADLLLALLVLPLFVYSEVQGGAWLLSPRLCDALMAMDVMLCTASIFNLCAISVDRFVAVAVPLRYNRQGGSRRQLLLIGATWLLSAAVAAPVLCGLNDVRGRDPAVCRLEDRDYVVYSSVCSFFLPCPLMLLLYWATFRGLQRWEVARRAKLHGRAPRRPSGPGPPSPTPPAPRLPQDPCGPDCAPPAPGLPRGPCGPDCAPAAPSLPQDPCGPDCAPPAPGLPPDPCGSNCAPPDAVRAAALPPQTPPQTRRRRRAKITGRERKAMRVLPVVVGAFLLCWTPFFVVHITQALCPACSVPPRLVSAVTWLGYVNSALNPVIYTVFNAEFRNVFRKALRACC

[7] = hD2LR antagonist effect, read-out: IC50 (inhibition of control agonist response)
[8] = hMAO-A, Dixon plot, read-out: Ki Value
[9] = hMAO-A, log dose-inhibition curve, triplicate, read-out: IC50 (μM, Mean ± SD)

T1 sequence (P14416 whole entry): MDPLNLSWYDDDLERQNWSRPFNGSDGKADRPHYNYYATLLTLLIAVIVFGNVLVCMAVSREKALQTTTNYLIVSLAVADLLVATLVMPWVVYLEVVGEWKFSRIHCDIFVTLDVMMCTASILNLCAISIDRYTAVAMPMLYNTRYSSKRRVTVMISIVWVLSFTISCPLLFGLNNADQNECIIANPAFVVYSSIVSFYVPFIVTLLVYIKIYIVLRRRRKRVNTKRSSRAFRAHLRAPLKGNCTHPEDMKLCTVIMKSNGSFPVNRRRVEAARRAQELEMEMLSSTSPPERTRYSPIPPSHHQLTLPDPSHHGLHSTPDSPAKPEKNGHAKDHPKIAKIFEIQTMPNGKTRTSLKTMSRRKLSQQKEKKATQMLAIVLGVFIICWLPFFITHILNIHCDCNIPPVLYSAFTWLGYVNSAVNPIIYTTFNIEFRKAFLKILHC
Chain of human dopamine D1 receptor (hD1R) (P21728 whole entry): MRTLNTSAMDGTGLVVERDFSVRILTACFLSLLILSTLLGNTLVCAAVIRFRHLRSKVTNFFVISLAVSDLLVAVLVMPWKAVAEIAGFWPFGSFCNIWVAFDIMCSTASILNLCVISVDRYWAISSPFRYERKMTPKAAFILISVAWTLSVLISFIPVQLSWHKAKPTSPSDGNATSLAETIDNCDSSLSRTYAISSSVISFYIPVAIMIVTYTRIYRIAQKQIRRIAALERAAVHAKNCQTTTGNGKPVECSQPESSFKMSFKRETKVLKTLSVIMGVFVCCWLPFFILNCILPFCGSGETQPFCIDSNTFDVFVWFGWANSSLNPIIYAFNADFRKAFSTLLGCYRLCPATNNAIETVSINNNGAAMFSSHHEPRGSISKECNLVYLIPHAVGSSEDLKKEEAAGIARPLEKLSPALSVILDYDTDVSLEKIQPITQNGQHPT
Chain of human dopamine D3 receptor (hD3R) (P35462 whole entry): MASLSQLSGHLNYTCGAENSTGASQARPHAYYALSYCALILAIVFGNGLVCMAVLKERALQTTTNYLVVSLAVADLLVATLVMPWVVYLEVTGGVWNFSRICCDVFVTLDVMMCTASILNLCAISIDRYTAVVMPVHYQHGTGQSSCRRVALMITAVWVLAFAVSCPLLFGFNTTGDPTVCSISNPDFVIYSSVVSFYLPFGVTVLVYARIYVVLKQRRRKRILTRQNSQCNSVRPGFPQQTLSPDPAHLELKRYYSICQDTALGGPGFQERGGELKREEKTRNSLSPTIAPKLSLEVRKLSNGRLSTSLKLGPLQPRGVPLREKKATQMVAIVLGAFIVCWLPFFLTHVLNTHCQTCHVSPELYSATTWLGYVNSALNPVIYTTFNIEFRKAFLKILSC

| inhibition at 100 µM [1] | % Stimulation of control agonist response [1] | inhibition at 25 µM [1] | IC50 [1, 7] | IC50 [2] | % Stimulation of control agonist response [2] | inhibition at 100 µM [2] | inhibition at 25 µM [2] | EC50 [3] | % Stimulation of control agonist response [3] | agonist response (%) [3] | inhibition at 100 µM [3] | Ki [4, 8] | Inhibition Type ([4]; hMAO-A) | IC50 [4, 9] | Inhibition Type [5] | IC50 [5] | % Stimulation of control agonist response [6] | inhibition at 100 µM [6] | Structure (SMILES) | % inhibition of hMAO activity (hMAO) | also measured |
| --- | --- | --- | --- | --- | --- | --- | --- | --- | --- | --- | --- | --- | --- | --- | --- | --- | --- | --- | --- | --- | --- |
| 101% | 7.10 ± 1.47% | 97.2% | 2.41 µM | 6.13 µM | 17.2 ± 8.4% | 87.7% | 92.3% | 15.1 µM | 119.9% and 119.9 ± 2.44% | 71.92% | -28.7% | 27 ± 3.98 µM | Competitive | 54.79 ± 0.03 µM | Noncompetitive | 18.1 ± 1.06 µM | 86.30% and 86.30 ± 0.99% | -20.8% | CC1=C[C@H]2c3c(O)cc(-c4cc5ccc(O)cc5o4)cc3O[C@@]3(c4ccc(O)cc4O)Oc4cc(O)ccc4[C@H](C1)[C@@H]23 [Compound 1, mulberrofuran G] | 93.87% | Ki ([5]; Dixon plot, read-out: Ki Value): 17 ± 3.31 µM; EC50 [6]: 17.2 µM; agonist response (%) [6]: 63.00% |
| 78.5% | 4.10 ± 1.06% | 81.1% | 18.4 µM | 7.16 µM | INTER | 67.8% | 66.8% | 12.6 µM | 102.8% and 102.8 ± 1.36% | 94.93% | -13.4% | 46.9 ± 4.12 µM | Competitive | 114 ± 2.3 µM | mixed type | 90.6 ± 1.72 µM | 46.10% and 46.10 ± 1.76% | 26.9% | Cc1cc2c3c(c1)-c1c(O)cc(-c4cc5ccc(O)cc5o4)cc1OC3(c1ccc(O)cc1O)Oc1cc(O)ccc1-2 (stereo not drawn) [Compound 3, albanol B] | 74.85% | Kiu (binding constant with enzyme-substrate complex) ([5]; secondary plot): 186.2 ± 10.26 µM; Ki ([5]; secondary plot, read-out: Kic (binding constant with free enzyme)): 55.2 ± 7.79 µM |

| Structure (SMILES) | inhibition at 100 µM [1] | % Stimulation of control agonist response [1] | inhibition at 25 µM [1] | IC50 [1, 7] | IC50 [2] | % Stimulation of control agonist response [2] | inhibition at 100 µM [2] | inhibition at 25 µM [2] | EC50 [3] | % Stimulation of control agonist response [3] | agonist response (%) [3] | inhibition at 100 µM [3] | Ki [4, 8] | Inhibition Type ([4]; hMAO-A) | IC50 [4, 9] | Inhibition Type [5] | IC50 [5] | % Stimulation of control agonist response [6] | inhibition at 100 µM [6] | % inhibition of hMAO activity (hMAO) | also measured |
| --- | --- | --- | --- | --- | --- | --- | --- | --- | --- | --- | --- | --- | --- | --- | --- | --- | --- | --- | --- | --- | --- |
| CC(C)=CCc1c(-c2ccc(O)cc2O)oc2c(C3C=C(C)CC(c4ccc(O)cc4O)C3C(=O)c3ccc(O)cc3O)c(O)cc(O)c2c1=O (stereo not drawn) [Compound 2, kuwanon G] | 99.2% | NSI | 33.7% |  | 16.5 µM | 0.85 ± 0.24% | 98.8% | 91.1% | 20.2 µM |  |  | -27.4% |  | Competitive |  | Noncompetitive | 57.7 ± 2.12 µM | 90.45% and 90.45 ± 0.14% | -29.6% | 99.05% | IC50 [1]: 31.2 µM; IC50 [4]: 70.2 ± 2.6 µM; Ki [4]: 28.3 ± 2.02 µM; Ki ([5]; Dixon plot, read-out: Ki Value): 52.1 ± 5.56 µM; EC50 [6]: 21 µM; agonist response (%) [6]: 58.66% |
